Measurements: patent US20230255970A1, “COMPOSITIONS AND METHODS FOR TREATING PROLIFERATIVE DISEASES” (The Broad Institute, Inc., priority 2020, published 2023)
Read-outs that look alike come from different tables or passages of the source.

Experiments:
[1] = tested on: YAP1 overexpression in U2OS cells; assay: Cell Painting morphological profile matching to YAP1/TAZ overexpression signature; format: cell-based, human
Procedure, shortened: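 Morphological profiles from Cell Painting (six fluorescent labels) in a single cell line at one time point, standardized plate-wise against control mean and SD, replicate profiles averaged feature-wise. Gene and compound signatures scored by Pearson correlation, large positive or negative correlations counted as matches.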

U2OS cells = assay: Cell count in U2OS Cell Painting images; format: cell-based, human; conditions: U2OS Cell Painting
Procedure, shortened: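 Compound-treated U2OS cells were stained with six fluorescent labels and imaged, and morphological profiles were standardized plate-wise against controls. Replicate profiles were averaged into signatures. Compound and gene-overexpression signatures were matched by Pearson correlation.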

[2] = tested on: H9 human pluripotent stem cells; assay: qPCR of YAP1, CTGF and CYR61 in H9 hPSCs; format: cell-based; conditions: 24 hrs
Method: H9 hPSCs (WiCell) were maintained on vitronectin (Thermo Fisher)-coated plates in Essential 8 (E8) medium. The cells were routinely passaged using 0.5 mM EDTA and treated with 5 μM Y-27632 dihydrochloride (Tocris) on the first day. For testing the effects of the small molecules, H9 hPSCs were seeded at 50K cells/cm^2 on vitronectin-coated plates in E8 medium supplemented with 5 μM Y-27632 dihydrochloride (day 0). On day 1, the medium was switched to E8 medium. On day 2, the medium was switched to E8 medium supplemented with the small molecules. Following overnight incubation, the cells were collected for subsequent analysis on day 3.
The RNA was extracted using TRIzol (Life Technologies) and Direct-zol™ RNA MiniPrep kit (Zymo Research) as per manufacturer instructions. The RNA was reverse transcribed using iScript cDNA synthesis kit (Bio-Rad). The qPCR was performed on CFX Connect (Bio-Rad) using iTaq Universal SYBR Green Supermix (Bio-Rad). GAPDH was used as a reference gene for normalization. The relative gene expression levels were determined using the ddCt method.

TEAD luciferase reporter = assay: YAP1-responsive TEAD luciferase reporter assay in HEK293T cells; format: cell-based; conditions: 10 μM, 48 h, HEK-293 cells
Method: A TEAD luciferase reporter was co-transfected with or without a Yap expression construct into HEK293T cells followed by treatment for 48 hours with DMSO or the indicated compounds. The data shown are the average of three samples within a representative experiment.
YAP1-related reporter assay: HEK293T cells were co-transfected using Lipofectamine 3000 (Thermo Fisher) with a TEAD luciferase reporter construct, 8×GTIIC-luciferase (Addgene plasmid #34615), a plasmid expressing Renilla Luciferase from a CMV promoter as a transfection control, along with a plasmid expressing 3×Flag-tagged wild-type YAP1 from a CMV promoter (pCMV5 backbone). Following transfection the cells were immediately treated with 0.2% DMSO, 10 μM NB4A, BRD-K34692511 or BRD-K28862419 and then lysed 48 hours later. Lysates were examined using the Dual-Luciferase Reporter Assay System (Promega) according to the manufacturer's protocol and measured using a SpectraMax iD3 plate reader (Molecular Devices). Firefly Luciferase activity from the TEAD reporter was normalized to Renilla Luciferase activity and then plotted as relative values.

KP230 cells = assay: RNA sequencing and gene set enrichment analysis in KP230 cells; format: cell-based, mouse; conditions: 10 μM daily for 72 hours
Source text: YAP1 cell culture and treatments: Eisinger lab: Murine KP230 cells, a Yap1-dependent cancer cell line, were derived from a tumor from the KP mouse model (Kras^G12/D; Trp53^f/fl), as described in Eisinger-Mathason, T. S. K. et al., Proc. Natl. Acad. Sci. U.S.A 112 (2015): E3402-11, which is hereby incorporated by reference in its entirety. STS-109 UPS cells were derived from a human UPS tumor and validated by Rebecca Gladdy, MD (Sinai Health System, Toronto, Ontario, Canada). TC32 cells were a gift from Patrick Grohar, MD, PhD (Children's Hospital of Philadelphia). HT-1080, HCT-116, and HEK293T cells were purchased from ATCC. KP230, HT-1080, and HEK-293T cells were grown in DMEM with 10% FBS, 1% L-glutamine, and 1% penicillin/streptomycin (P/S). STS-109 cells were cultured in DMEM with 20% FBS, 1% L-glutamine, and 1% P/S. TC32 cells were grown in RPMI with 10% FBS, 1% L-glutamine, and 1% P/S. HCT-116 cells were cultured in McCoy's 5A medium with 10% FBS and 1% P/S. All cells were confirmed to be negative for mycoplasma contamination and were maintained in an incubator at 37C with 5% CO2. For experimental purposes, cells were cultured for up to 20 passages before being discarded, and were grown to approximately 50% confluence to circumvent the effects of high cell density on Yap1 expression and activity. […]

YAP1 mRNA = conditions: cited from earlier work

With `c1ccc(CNc2ncnc3ccccc23)cc1` [BRD-K43796186, N-benzylquinazolin-4-amine] the “Cell Painting profile correlation with YAP1 overexpression” value [1] was 0.46, the “Corr. to YAP1 cluster” value ([1]; Pearson correlation of Cell Painting signatures, U2OS cells) was 0.4622 and the “Avg. Cell Count z-score” value (U2OS cells) was −0.5708. The YAP1 expression [2] was “did not affect”, the “expression of YAP1 target genes (CTGF and CYR61)” value [2] was “increased the expression of YAP1 target genes (CTGF and CYR61) in a dose-dependent manner” and the “YAP1-responsive (TEAD) reporter activity” value (TEAD luciferase reporter) was “no effect”. For the same compound, the “pathways down-regulated (GSEA)” value (KP230 cells) was “epithelial-mesenchymal transition, angiogenesis, and glycolysis”, the “pathways up-regulated (GSEA)” value (KP230 cells) was “interferon alpha and gamma responses” and the “YAP1 mRNA z-score” value (YAP1 mRNA; A375 cells, 6 and 24 hours) was roughly -0.7. For the same compound, the “YAP1 mRNA z-score” value (YAP1 mRNA; HT29 cells, six hours) was 3.16 and the “YAP1 mRNA” value (YAP1 mRNA; most cell types in the Connectivity Map) was “unaffected”.
